Measured values taken from patent US9428452B2, “Compounds” (Glaxo Group Limited, priority 2012, dated 2016).

Target: T1, Human RORγ Ligand Binding Domain (RORγ-LBD) (Homo sapiens, UniProt P51449)
T1 construct: His6 with thrombin site) (N); made in house; host or cells: E. coli BL21(DE3), modified pET21a vector
T1 sequence (P51449 263-518): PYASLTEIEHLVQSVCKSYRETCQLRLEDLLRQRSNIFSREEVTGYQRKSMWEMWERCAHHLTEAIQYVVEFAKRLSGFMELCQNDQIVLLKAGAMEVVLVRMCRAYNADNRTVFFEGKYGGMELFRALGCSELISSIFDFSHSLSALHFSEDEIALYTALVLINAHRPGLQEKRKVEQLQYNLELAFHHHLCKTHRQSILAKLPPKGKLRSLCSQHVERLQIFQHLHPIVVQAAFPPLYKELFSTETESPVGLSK
Assay: Dual Fluorescence Energy Transfer (FRET) assay: co-activator SRC1(2) peptide interaction with RORγ-LBD
Format: biochemical
Conditions: RORγ-LBD / SRC1(2) peptide, read-out: mean pIC50 (converted)

IC50: 63.1 nM
SMILES: CCc1ccc(N(CC(C)C)S(=O)(=O)c2ccc([C@@H](O)CN3CCOCC3)c(CO)c2)cc1 [Example E126, N-(4-ethylphenyl)-4-(1-hydroxy-2-morpholinoethyl)-3-(hydroxymethyl)-N-isobutylbenzenesulfonamide]
